According to PubChem BioAssay (NCI):
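Exposure lasted 48 hours, with cells grown in 96-well plates and compounds tested at five concentrations. The concentration for full growth arrest is given as TGI.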

Experiments:
Experiment in all cases: growth of human tumour cells (NCI), 48 h
[1] = tested on: EKVX NSCLC
[2] = tested on: HT29 colon
[3] = tested on: K-562 leukemia
[4] = tested on: SK-MEL-28 melanoma
[5] = tested on: SK-MEL-5 melanoma
[6] = tested on: CAKI-1 renal
[7] = tested on: HCC-2998 colon
[8] = tested on: UACC-257 melanoma
[9] = tested on: HOP-62 NSCLC
[10] = tested on: A498 renal
[11] = tested on: SNB-19 CNS
[12] = tested on: SR leukemia
[13] = tested on: CCRF-CEM leukemia
[14] = tested on: SN12C renal
[15] = tested on: T-47D breast
[16] = tested on: NCI-H522 lung
[17] = tested on: 786-0 renal
[18] = tested on: RPMI-8226 leukemia
[19] = tested on: NCI/ADR-RES ovarian
[20] = tested on: SK-MEL-2 melanoma

CC1C2CC(CC2(C)O)C1(C)C (stereo not given)
TGI [1]: > 100 µM
TGI [2]: > 100 µM
TGI [3]: > 100 µM
TGI [4]: > 100 µM
TGI [5]: > 100 µM
TGI [6]: > 100 µM
TGI [7]: > 100 µM
TGI [8]: > 100 µM
TGI [9]: > 100 µM
TGI [10]: > 100 µM
TGI [11]: > 100 µM
TGI [12]: > 100 µM
TGI [13]: > 100 µM
TGI [14]: > 100 µM
TGI [15]: > 100 µM
TGI [16]: > 100 µM
TGI [17]: > 100 µM

CNC1c2ccccc2C(=O)c2cc3c(cc21)OCCOCCOCCOCCO3 (stereo not given)
TGI [1]: > 100 µM
TGI [2]: > 100 µM
TGI [3]: > 100 µM
TGI [4]: > 100 µM
TGI [5]: > 100 µM
TGI [7]: > 100 µM
TGI [8]: > 100 µM
TGI [9]: > 100 µM
TGI [18]: > 100 µM
TGI [11]: > 100 µM
TGI [12]: 96.2 µM
TGI [13]: 46.1 µM
TGI [19]: > 100 µM
TGI [14]: > 100 µM
TGI [15]: > 100 µM
TGI [16]: > 100 µM
TGI [17]: > 100 µM

O=C(NNC1=NCCCN1)c1ccco1
TGI [1]: > 100 µM
TGI [2]: > 100 µM
TGI [3]: > 100 µM
TGI [4]: > 100 µM
TGI [5]: > 100 µM
TGI [7]: > 100 µM
TGI [8]: > 100 µM
TGI [9]: > 100 µM
TGI [18]: > 100 µM
TGI [11]: > 100 µM
TGI [12]: > 100 µM
TGI [13]: > 100 µM
TGI [19]: > 100 µM
TGI [14]: > 100 µM
TGI [20]: > 100 µM
TGI [15]: > 100 µM
TGI [16]: > 100 µM
TGI [17]: > 100 µM

Cc1cc(=O)oc2c(CNC(CO)C(=O)O)c(O)ccc12 (stereo not given)
TGI [1]: > 100 µM
TGI [2]: > 100 µM
TGI [3]: > 100 µM
TGI [4]: > 100 µM
TGI [5]: > 100 µM
TGI [6]: > 100 µM
TGI [8]: > 100 µM
TGI [9]: > 100 µM
TGI [18]: > 100 µM
TGI [11]: > 100 µM
TGI [12]: > 100 µM
TGI [13]: > 100 µM
TGI [19]: > 100 µM
TGI [14]: > 100 µM
TGI [20]: > 100 µM
TGI [15]: > 100 µM
TGI [16]: > 100 µM
TGI [17]: > 100 µM

COc1cc2oc(-c3ccccc3)cc(=O)c2c(O)c1C
TGI [1]: > 100 µM
TGI [2]: > 100 µM
TGI [3]: > 100 µM
TGI [4]: > 100 µM
TGI [5]: > 100 µM
TGI [6]: > 100 µM
TGI [7]: > 100 µM
TGI [8]: > 100 µM
TGI [9]: > 100 µM
TGI [10]: > 100 µM
TGI [18]: > 100 µM
TGI [12]: > 100 µM
TGI [13]: > 100 µM
TGI [14]: > 100 µM
TGI [20]: > 100 µM
TGI [16]: > 100 µM
TGI [17]: > 100 µM

COc1ccc2c(=O)cc(-c3ccc(OC)c(OC)c3OC)oc2c1
TGI [1]: > 100 µM
TGI [2]: > 100 µM
TGI [3]: > 100 µM
TGI [4]: > 100 µM
TGI [5]: > 100 µM
TGI [6]: > 100 µM
TGI [7]: > 100 µM
TGI [8]: > 100 µM
TGI [9]: > 100 µM
TGI [18]: 53.9 µM
TGI [11]: > 100 µM
TGI [12]: > 100 µM
TGI [13]: > 31.6 µM
TGI [19]: > 100 µM
TGI [14]: > 100 µM
TGI [15]: > 100 µM
TGI [16]: > 100 µM
TGI [17]: > 100 µM

O=C(/C=C/c1ccccc1O)c1ccc([N+](=O)[O-])cc1
TGI [1]: 43.4 µM
TGI [2]: 36.7 µM
TGI [3]: 71.6 µM
TGI [4]: 94.4 µM
TGI [5]: 49.8 µM
TGI [6]: 39.1 µM
TGI [7]: 30.1 µM
TGI [8]: > 100 µM
TGI [9]: 32.4 µM
TGI [10]: 40.9 µM
TGI [11]: 35.8 µM
TGI [12]: 63.6 µM
TGI [13]: 66.1 µM
TGI [14]: 30.8 µM
TGI [20]: 66.8 µM
TGI [16]: 33.1 µM
TGI [17]: 32.6 µM

COc1cc(C2OC(N)=C(C#N)C3=C2C(C)CCC3)cc(OC)c1OC (stereo not given)
TGI [1]: > 100 µM
TGI [2]: > 100 µM
TGI [3]: > 100 µM
TGI [4]: > 100 µM
TGI [5]: > 100 µM
TGI [6]: > 100 µM
TGI [8]: > 100 µM
TGI [9]: 40.7 µM
TGI [18]: > 100 µM
TGI [11]: > 100 µM
TGI [12]: > 100 µM
TGI [13]: > 100 µM
TGI [19]: > 100 µM
TGI [14]: > 100 µM
TGI [20]: > 100 µM
TGI [15]: > 100 µM
TGI [17]: > 100 µM

CCOC(=O)CC[C@H](NC(=O)N[C@H](C)c1ccccc1)C(=O)OCC
TGI [1]: > 100 µM
TGI [2]: > 100 µM
TGI [3]: > 100 µM
TGI [4]: 43.8 µM
TGI [5]: > 100 µM
TGI [6]: > 100 µM
TGI [7]: 72.3 µM
TGI [8]: 46.6 µM
TGI [9]: > 100 µM
TGI [10]: > 100 µM
TGI [18]: > 100 µM
TGI [11]: > 100 µM
TGI [12]: > 100 µM
TGI [13]: 54.2 µM
TGI [19]: 75.9 µM
TGI [14]: > 100 µM
TGI [20]: 52.8 µM
TGI [17]: > 100 µM

O=C(O)C1(Cc2ccccc2)Cc2cc3c(cc2C1)CCC3
TGI [1]: > 100 µM
TGI [2]: > 100 µM
TGI [3]: > 100 µM
TGI [4]: > 100 µM
TGI [5]: > 100 µM
TGI [7]: > 100 µM
TGI [8]: > 100 µM
TGI [9]: > 100 µM
TGI [18]: > 100 µM
TGI [11]: > 100 µM
TGI [12]: > 100 µM
TGI [13]: > 100 µM
TGI [19]: > 100 µM
TGI [14]: > 100 µM
TGI [20]: > 100 µM
TGI [15]: > 100 µM
TGI [16]: > 100 µM
TGI [17]: > 100 µM

CC(C)(C)C1CCC2c3c([nH]c4ccccc34)C3C(=O)N(c4ccccc4Cl)C(=O)C3C2C1 (stereo not given)
TGI [1]: 31.5 µM
TGI [2]: 28.4 µM
TGI [3]: > 100 µM
TGI [5]: 28.7 µM
TGI [6]: 37.1 µM
TGI [7]: 11.2 µM
TGI [8]: > 100 µM
TGI [9]: 32.5 µM
TGI [10]: 52.6 µM
TGI [18]: > 100 µM
TGI [11]: > 100 µM
TGI [12]: > 100 µM
TGI [13]: > 100 µM
TGI [19]: 44 µM
TGI [14]: 22.7 µM
TGI [20]: 35 µM
TGI [17]: 27.7 µM

COc1cccc(/C=C/C(=O)c2sc(C(N)=S)nc2C)c1O
TGI [1]: > 100 µM
TGI [2]: > 100 µM
TGI [3]: > 100 µM
TGI [4]: > 100 µM
TGI [5]: > 100 µM
TGI [6]: > 100 µM
TGI [7]: > 100 µM
TGI [8]: > 100 µM
TGI [9]: > 100 µM
TGI [10]: > 100 µM
TGI [18]: > 83.3 µM
TGI [11]: > 100 µM
TGI [12]: 32.5 µM
TGI [13]: 64.2 µM
TGI [14]: > 100 µM
TGI [20]: > 100 µM
TGI [16]: > 74 µM
TGI [17]: > 100 µM
